Measured values from ChEMBL document CHEMBL5331101, “Synthesis and evaluation of N-sulfonylpiperidine-3-carboxamide derivatives as capsid assembly modulators inhibiting HBV in vitro and in HBV-transgenic mice” (Eur J Med Chem, 2023).
Calls of active or inactive are those of the source. The rule behind the calls is not given here.

Tests used:
Hepatitis B virus [1] = experiment: Antiviral activity against HBV infected in human HePAD38 cells assessed as reduction in intracellular core HBV DNA level at 20 uM incubated for 6 days by qPCR analysis relative to control; type: functional; design: scale not given: the % may be the effect or the level left; details: time 6 day
Hepatitis B virus [2] = experiment: Antiviral activity against HBV infected in human HePAD38 assessed as reduction on HBeAg level at 20 uM by ELISA analysis relative to control; type: functional; design: scale not given: the % may be the effect or the level left
Hepatitis B virus [3] = experiment: Antiviral activity against HBV infected in human HePAD38 assessed as reduction on HBsAg level at 20 uM by ELISA analysis relative to control; type: functional; design: scale not given: the % may be the effect or the level left
Hepatitis B virus [4] = experiment: Antiviral activity against HBV infected in human HePAD38 cells assessed as reduction of capsid associated HBV DNA; type: functional, organism-based
[5] = Cytotoxicity against human HepAD38 cells assessed as reduction in cell viability incubated for 6 days by CCK-8 assay; type: functional; details: HePAD38, 144 h, time 6 day
[6] = Selectivity index, ratio of CC50 for cytotoxicity against human HepAD38 cells to EC50 for antiviral activity against HBV infected in human HePAD38 cells; type: toxicity, cell-based; details: read-out: Ratio CC50/EC50
Hepatitis B virus [7] = experiment: Antiviral activity against HBV infected in human HePAD38 cells assessed as decay of viral capsid protein by agarose gel electrophoresis-based assay; type: functional, organism-based
Hepatitis B virus [8] = experiment: Antiviral activity against HBV infected in human HePAD38 cells assessed as decay of viral core protein by agarose gel electrophoresis-based assay; type: functional, organism-based
Hepatitis B virus [9] = experiment: Antiviral activity against HBV infected in human HePAD38 cells assessed as reduction in capsid formation upto 10 uM measured for 6 days by agarose gel electrophoresis-based assay; type: functional, organism-based; details: time 6.0 day
Hepatitis B virus [10] = experiment: Antiviral activity against HBV infected in human HePAD38 cells assessed as reduction in […] level upto10 uM measured for 6 days by agarose gel electrophoresis-based assay; type: functional, organism-based; details: dose 10.0 µM, time 6.0 day
Hepatitis B virus [11] = experiment: Antiviral activity against HBV infected in human HePAD38 cells assessed as reduction in capsid formation at 0.625 to 10 uM measured for 6 days by agarose gel electrophoresis-based assay; type: functional, organism-based; details: dose 0.625-10 µM, time 6.0 day
Hepatitis B virus [12] = experiment: Antiviral activity against HBV infected in human HePAD38 cells assessed as reduction in capsid formation measured for 6 days by agarose gel electrophoresis-based assay; type: functional, organism-based; details: time 6.0 day
Hepatitis B virus [13] = experiment: Antiviral activity against HBV infected human HePAD38 cells assessed as reduction in HBeAg level in cell supernatant at 0.625 to 10 uM and measured after 6 days by ELISA analysis; type: functional, organism-based; details: dose 0.625-10 µM, time 6.0 day
Hepatitis B virus [14] = experiment: Antiviral activity against HBV infected human HePAD38 cells assessed as reduction in HBsAg level in cell supernatant at 0.625 to 10 uM and measured after 6 days by ELISA analysis; type: functional, organism-based; details: dose 0.625-10 µM, time 6.0 day
Hepatitis B virus [15] = experiment: Antiviral activity against HBV infected in human HePAD38 cells assessed as reduction in intracellular 3.5 Kb HBV RNA level at 0.625 to 10 uM and incubated for 6 days by Northern blot analysis; type: functional, organism-based; details: dose 0.625-10 µM, time 6.0 day
Hepatitis B virus [16] = experiment: Antiviral activity against HBV infected in human HePAD38 cells assessed as reduction in intracellular 3.5 Kb HBV RNA level at 0.625 to 10 uM and incubated for 6 days by real-time PCR analysis; type: functional, organism-based; details: dose 0.625-10 µM, time 6.0 day
Hepatitis B virus [17] = experiment: Antiviral activity against HBV infected in human HePAD38 cells assessed as reduction in HBV core DNA level and incubated for 6 days by southern blot analysis; type: functional, organism-based; details: dose 0.625-10 µM, time 6.0 day
Hepatitis B virus [18] = experiment: Antiviral activity against HBV infected in human HePAD38 cells assessed as reduction in encapsidated pgRNA at 0.625 to 10 uM incubated for 6 days by northern blot analysis; type: functional, organism-based; details: dose 0.625-10 µM, time 6.0 day
Hepatitis B virus [19] = experiment: Effect on capsid morphology in human HePAD38 cells infected with Hepatitis B virus at 5 uM incubated for 6 days by immunofluorescence analysis; type: functional, organism-based; details: time 6.0 day
Hepatitis B virus [20] = experiment: Antiviral activity against HBV infected in human HepAD38 cells assessed as effect on capsid morphology at 20 uM incubated for 3 to 7 days by transmission electron microscopy; type: functional, organism-based; details: time 3-7 day
Hepatitis B virus [21] = experiment: Antiviral activity against HBV genotype A infected in human HepG2 cells assessed as inhibition of viral replication; type: functional, organism-based
Hepatitis B virus [22] = experiment: Antiviral activity against HBV genotype B infected in human HepG2 cells assessed as inhibition of viral replication; type: functional, organism-based
Hepatitis B virus [23] = experiment: Antiviral activity against HBV genotype C infected in human HepG2 cells assessed as inhibition of viral replication; type: functional, organism-based
Hepatitis B virus [24] = experiment: Antiviral activity against HBV genotype D infected in human HepG2 cells assessed as inhibition of viral replication; type: functional, organism-based
Hepatitis B virus [25] = experiment: Antiviral activity against wild type HBV infected in human HepG2 cells assessed as inhibition of viral replication; type: functional, organism-based
Hepatitis B virus [26] = experiment: Antiviral activity against ETV-resistant HBV infected in human HepG2 cells assessed as inhibition of viral replication; type: functional, organism-based
Hepatitis B virus [27] = experiment: Antiviral activity against HBV infected in transgenic C57BL/6 mouse assessed as inhibition of viral replication by measuring log reduction in serum HBV DNA level at 100 mg/kg, po BID measured for 12 days by RT-PCR analysis; type: functional; details: time 12 day
Hepatitis B virus [28] = experiment: Antiviral activity against HBV infected in transgenic C57BL/6 mouse assessed as inhibition of viral replication by measuring log reduction in serum HBV DNA level at 30 mg/kg, po BID measured for 12 days by RT-PCR analysis; type: functional; details: time 12 day
Hepatitis B virus [29] = experiment: Antiviral activity against HBV infected in transgenic C57BL/6 mouse assessed as inhibition of viral replication by measuring log reduction in liver HBV DNA level at 30 mg/kg, po BID measured for 12 days by RT-PCR analysis; type: functional; details: time 12 day
Hepatitis B virus [30] = experiment: Antiviral activity against HBV infected in transgenic C57BL/6 mouse assessed as inhibition of viral replication by measuring log reduction in liver HBV DNA level at 100 mg/kg, po BID measured for 12 days by RT-PCR analysis; type: functional; details: time 12 day
Hepatitis B virus [31] = experiment: Antiviral activity against HBV infected in transgenic C57BL/6 mouse assessed as reduction in intrahepatic 3.5 kb HBV RNA level at 100 mg/kg, po BID measured for 12 days by RT-PCR analysis; type: functional, organism-based; details: time 12.0 day
Hepatitis B virus [32] = experiment: Antiviral activity against HBV infected in transgenic C57BL/6 mouse assessed as reduction in intrahepatic 3.5 kb HBV RNA level at 30 mg/kg, po BID measured for 12 days by RT-PCR analysis; type: functional, organism-based; details: time 12.0 day
Hepatitis B virus [33] = experiment: Antiviral activity against HBV infected in transgenic C57BL/6 mouse assessed as reduction in serum HBeAg level at 30 mg/kg, po BID measured for 12 days by ELISA analysis; type: functional, organism-based; details: time 12.0 day
Hepatitis B virus [34] = experiment: Antiviral activity against HBV infected in transgenic C57BL/6 mouse assessed as reduction in serum HBeAg level at 100 mg/kg, po BID measured for 12 days by ELISA analysis; type: functional, organism-based; details: time 12.0 day
Hepatitis B virus [35] = experiment: Antiviral activity against HBV infected in transgenic C57BL/6 mouse assessed as reduction in serum HBsAg level at 100 mg/kg, po BID measured for 12 days by ELISA analysis; type: functional, organism-based; details: time 12.0 day
Hepatitis B virus [36] = experiment: Antiviral activity against HBV infected in transgenic C57BL/6 mouse assessed as reduction in serum HBsAg level at 30 mg/kg, po BID measured for 12 days by ELISA analysis; type: functional, organism-based; details: time 12.0 day
[37] = Hepatotoxicity in C57BL/6 mouse assessed as effect on AST level in serum at 30 mg/kg, po BID measured for 12 days; type: toxicity, organism-based; details: in vivo, 288 h, time 12 day
[38] = Hepatotoxicity in C57BL/6 mouse assessed as effect on AST level in serum at 100 mg/kg, po BID measured for 12 days; type: toxicity, organism-based; details: in vivo, 288 h, time 12 day
[39] = Hepatotoxicity in C57BL/6 mouse assessed as effect on ALT level in serum at 30 mg/kg, po BID measured for 12 days; type: toxicity, organism-based; details: in vivo, 288 h, time 12 day
[40] = Hepatotoxicity in C57BL/6 mouse assessed as effect on ALT level in serum at 100 mg/kg, po BID measured for 12 days; type: toxicity, organism-based; details: in vivo, 288 h, time 12 day
[41] = Toxicity in C57BL/6 mouse assessed as histopathological changes in liver at 100 mg/kg, po measured after 12 days by H and E staining analysis; type: organism-based; details: in vivo, 288 h, time 12 day
[42] = Toxicity in C57BL/6 mouse assessed as histopathological changes in liver at 30 mg/kg, po measured after 12 days by H and E staining analysis; type: organism-based; details: in vivo, 288 h, time 12 day

CCOC(=O)c1c(S(=O)(=O)N2CCC[C@H](C(=O)Nc3ccc(F)c(C)c3)C2)c(C)n(CC(F)(F)F)c1C
Activity (Hepatitis B virus [1]): 12% | Activity (Hepatitis B virus [2]): 36.9% | Activity (Hepatitis B virus [3]): 101.8% | EC50 (Hepatitis B virus [4]): 110 nM | CC50 [5]: 82300 nM | selectivity ratio [6]: 775 | Activity (Hepatitis B virus [7]): inactive | Activity (Hepatitis B virus [8]): inactive | Activity (Hepatitis B virus [9]): Active | Activity (Hepatitis B virus [10]): Active | Activity (Hepatitis B virus [11]): Active | Activity (Hepatitis B virus [12]): Dose-Dependent Effect | Activity (Hepatitis B virus [13]): Active | Activity (Hepatitis B virus [14]): inactive | Activity (Hepatitis B virus [15]): Active | Activity (Hepatitis B virus [16]): Active | Activity (Hepatitis B virus [17]): Dose-Dependent Effect | Activity (Hepatitis B virus [18]): Active | Activity (Hepatitis B virus [19]): inactive | Activity (Hepatitis B virus [20]): inactive | EC50 (Hepatitis B virus [21]): 130 nM | EC50 (Hepatitis B virus [22]): 120 nM | EC50 (Hepatitis B virus [23]): 160 nM | EC50 (Hepatitis B virus [24]): 240 nM | EC50 (Hepatitis B virus [25]): 3.1 nM | EC50 (Hepatitis B virus [26]): 7.2 nM | log(activity) (Hepatitis B virus [27]): 2.42 | log(activity) (Hepatitis B virus [28]): 1.37 | log(activity) (Hepatitis B virus [29]): 0.43 | log(activity) (Hepatitis B virus [30]): 0.98 | Activity (Hepatitis B virus [31]): Active | Activity (Hepatitis B virus [32]): Active | Activity (Hepatitis B virus [33]): Active | Activity (Hepatitis B virus [34]): Active | Activity (Hepatitis B virus [35]): inactive | Activity (Hepatitis B virus [36]): inactive | Activity [37]: Non-Toxic | Activity [38]: Non-Toxic | Activity [39]: Non-Toxic | Activity [40]: Non-Toxic | Activity [41]: Non-Toxic | Activity [42]: Non-Toxic
